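48-hour exposure; five concentrations; linearly interpolated endpoints. TGI marks complete inhibition of growth.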
What was measured:
Assay in all cases: growth of human tumour cells (NCI), 48 h
SF-295 CNS = system: SF-295 CNS
A549 NSCLC = system: A549 NSCLC
NCI-H23 lung = system: NCI-H23 lung
HCT-116 colon = system: HCT-116 colon
DU-145 prostate = system: DU-145 prostate
T-47D breast = system: T-47D breast
IGROV1 ovarian = system: IGROV1 ovarian
HCT-15 colon = system: HCT-15 colon
U251 CNS = system: U251 CNS
HS 578T breast = system: HS 578T breast
UACC-62 melanoma = system: UACC-62 melanoma
K-562 leukemia = system: K-562 leukemia
MDA-MB-435 = system: MDA-MB-435
RXF 393 renal = system: RXF 393 renal
SF-268 CNS = system: SF-268 CNS
HCC-2998 colon = system: HCC-2998 colon
M14 melanoma = system: M14 melanoma
NCI-H460 lung = system: NCI-H460 lung
SNB-75 CNS = system: SNB-75 CNS
SF-539 CNS = system: SF-539 CNS
A498 renal = system: A498 renal
LOX IMVI melanoma = system: LOX IMVI melanoma
EKVX NSCLC = system: EKVX NSCLC
SW-620 colon = system: SW-620 colon
PC-3 prostate = system: PC-3 prostate
SNB-19 CNS = system: SNB-19 CNS
NCI-H522 lung = system: NCI-H522 lung
NCI/ADR-RES ovarian = system: NCI/ADR-RES ovarian
MDA-MB-231 breast = system: MDA-MB-231 breast
SK-MEL-28 melanoma = system: SK-MEL-28 melanoma
SN12C renal = system: SN12C renal
KM12 colon = system: KM12 colon
RPMI-8226 leukemia = system: RPMI-8226 leukemia
786-0 renal = system: 786-0 renal
HOP-92 NSCLC = system: HOP-92 NSCLC
UO-31 renal = system: UO-31 renal
HT29 colon = system: HT29 colon
SR leukemia = system: SR leukemia
MCF7 breast = system: MCF7 breast
MALME-3M melanoma = system: MALME-3M melanoma
OVCAR-8 ovarian = system: OVCAR-8 ovarian
TK-10 renal = system: TK-10 renal
SK-MEL-5 melanoma = system: SK-MEL-5 melanoma
CAKI-1 renal = system: CAKI-1 renal
UACC-257 melanoma = system: UACC-257 melanoma
MDA-N = system: MDA-N
OVCAR-3 ovarian = system: OVCAR-3 ovarian
COLO 205 colon = system: COLO 205 colon
NCI-H226 lung = system: NCI-H226 lung
BT-549 breast = system: BT-549 breast
SK-MEL-2 melanoma = system: SK-MEL-2 melanoma
MOLT-4 leukemia = system: MOLT-4 leukemia
OVCAR-5 ovarian = system: OVCAR-5 ovarian
SK-OV-3 ovarian = system: SK-OV-3 ovarian
OVCAR-4 ovarian = system: OVCAR-4 ovarian
HOP-62 NSCLC = system: HOP-62 NSCLC
HL-60(TB) leukemia = system: HL-60(TB) leukemia
CCRF-CEM leukemia = system: CCRF-CEM leukemia
ACHN renal = system: ACHN renal

CC[C@@]1(O)C(=O)OCc2c1cc1n(c2=O)Cc2c-1nc1ccccc1c2/C=N/NC(=O)C[N+](C)(C)C
TGI (SF-295 CNS): > 33.3 µM | TGI (A549 NSCLC): > 100 µM | TGI (NCI-H23 lung): 6.27 µM | TGI (HCT-116 colon): > 100 µM | TGI (DU-145 prostate): 22 µM | TGI (T-47D breast): 30.4 µM | TGI (IGROV1 ovarian): > 100 µM | TGI (HCT-15 colon): > 100 µM | TGI (U251 CNS): > 35.8 µM | TGI (HS 578T breast): > 100 µM | TGI (UACC-62 melanoma): 3.66 µM | TGI (K-562 leukemia): > 100 µM | TGI (MDA-MB-435): > 100 µM | TGI (RXF 393 renal): 11.7 µM | TGI (SF-268 CNS): > 63 µM | TGI (HCC-2998 colon): > 100 µM | TGI (M14 melanoma): 20.5 µM | TGI (NCI-H460 lung): 21.5 µM | TGI (SNB-75 CNS): 9.74 µM | TGI (SF-539 CNS): 2.61 µM | TGI (A498 renal): > 65.1 µM | TGI (LOX IMVI melanoma): > 37.6 µM | TGI (EKVX NSCLC): > 100 µM | TGI (SW-620 colon): > 100 µM | TGI (PC-3 prostate): > 100 µM | TGI (SNB-19 CNS): > 94.2 µM | TGI (NCI-H522 lung): > 100 µM | TGI (NCI/ADR-RES ovarian): > 62.3 µM | TGI (MDA-MB-231 breast): > 100 µM | TGI (SK-MEL-28 melanoma): > 100 µM | TGI (SN12C renal): > 100 µM | TGI (KM12 colon): > 100 µM | TGI (RPMI-8226 leukemia): > 100 µM | TGI (786-0 renal): > 55.7 µM | TGI (HOP-92 NSCLC): > 49.3 µM | TGI (UO-31 renal): 9.72 µM | TGI (HT29 colon): > 100 µM | TGI (SR leukemia): 0.922 µM | TGI (MCF7 breast): > 100 µM | TGI (MALME-3M melanoma): > 100 µM | TGI (OVCAR-8 ovarian): > 100 µM | TGI (TK-10 renal): > 100 µM | TGI (SK-MEL-5 melanoma): 7.98 µM | TGI (CAKI-1 renal): > 100 µM | TGI (UACC-257 melanoma): > 100 µM | TGI (MDA-N): > 100 µM | TGI (OVCAR-3 ovarian): > 100 µM | TGI (COLO 205 colon): > 100 µM | TGI (NCI-H226 lung): 31.8 µM | TGI (BT-549 breast): > 100 µM | TGI (SK-MEL-2 melanoma): > 100 µM | TGI (MOLT-4 leukemia): 16.3 µM | TGI (OVCAR-5 ovarian): > 100 µM | TGI (SK-OV-3 ovarian): > 100 µM | TGI (OVCAR-4 ovarian): > 100 µM

COc1cccc(-c2nnc3c(-c4ccccc4)nc4ccccc4n23)c1
TGI (SF-295 CNS): > 100 µM | TGI (A549 NSCLC): > 100 µM | TGI (NCI-H23 lung): > 100 µM | TGI (HCT-116 colon): > 100 µM | TGI (DU-145 prostate): > 100 µM | TGI (HOP-62 NSCLC): > 100 µM | TGI (T-47D breast): 17.3 µM | TGI (IGROV1 ovarian): > 100 µM | TGI (HCT-15 colon): > 100 µM | TGI (U251 CNS): > 100 µM | TGI (HS 578T breast): > 100 µM | TGI (UACC-62 melanoma): > 100 µM | TGI (K-562 leukemia): > 56.5 µM | TGI (MDA-MB-435): 8.62 µM | TGI (RXF 393 renal): 94.7 µM | TGI (SF-268 CNS): > 100 µM | TGI (HCC-2998 colon): 62.7 µM | TGI (M14 melanoma): > 100 µM | TGI (NCI-H460 lung): 98.7 µM | TGI (HL-60(TB) leukemia): 34 µM | TGI (SF-539 CNS): > 100 µM | TGI (A498 renal): 93.4 µM | TGI (LOX IMVI melanoma): > 100 µM | TGI (EKVX NSCLC): > 100 µM | TGI (SW-620 colon): > 100 µM | TGI (PC-3 prostate): > 100 µM | TGI (SNB-19 CNS): > 100 µM | TGI (NCI-H522 lung): 22.7 µM | TGI (NCI/ADR-RES ovarian): > 100 µM | TGI (MDA-MB-231 breast): > 100 µM | TGI (SK-MEL-28 melanoma): > 100 µM | TGI (SN12C renal): > 100 µM | TGI (KM12 colon): > 43.7 µM | TGI (RPMI-8226 leukemia): 26.4 µM | TGI (786-0 renal): > 100 µM | TGI (HOP-92 NSCLC): > 100 µM | TGI (UO-31 renal): > 100 µM | TGI (CCRF-CEM leukemia): 39.1 µM | TGI (HT29 colon): > 100 µM | TGI (SR leukemia): > 54.8 µM | TGI (MCF7 breast): > 100 µM | TGI (MALME-3M melanoma): > 83.7 µM | TGI (OVCAR-8 ovarian): > 100 µM | TGI (TK-10 renal): > 100 µM | TGI (ACHN renal): > 100 µM | TGI (SK-MEL-5 melanoma): 77.6 µM | TGI (CAKI-1 renal): > 86.6 µM | TGI (UACC-257 melanoma): > 100 µM | TGI (MDA-N): 14.2 µM | TGI (OVCAR-3 ovarian): > 100 µM | TGI (COLO 205 colon): > 100 µM | TGI (NCI-H226 lung): > 100 µM | TGI (BT-549 breast): > 100 µM | TGI (SK-MEL-2 melanoma): 44.3 µM | TGI (MOLT-4 leukemia): > 63.8 µM | TGI (OVCAR-5 ovarian): > 100 µM | TGI (SK-OV-3 ovarian): > 100 µM | TGI (OVCAR-4 ovarian): > 100 µM

Source: PubChem BioAssay (NCI)
